According to patent publication EP4745137A1 (Gluetacs Therapeutics (Shanghai) Co., Ltd., priority 2023, dated 2025):

Columns and labels:
Format in all cases: cell-based
Settings in all cases: 24 hours of compound treatment, 50 nM and 500 nM tested (concentration behind the class not stated)
WEE1 = target: T1, WEE1 (Homo sapiens, UniProt P30291+Q96SW2); test: Western-blot assay of substrate protein degradation in hPBMCs, WEE1
T1 construct: endogenous in cells; host or cells: hPBMCs (Milecell Biotechnologies)
T1 sequence (P30291 whole entry): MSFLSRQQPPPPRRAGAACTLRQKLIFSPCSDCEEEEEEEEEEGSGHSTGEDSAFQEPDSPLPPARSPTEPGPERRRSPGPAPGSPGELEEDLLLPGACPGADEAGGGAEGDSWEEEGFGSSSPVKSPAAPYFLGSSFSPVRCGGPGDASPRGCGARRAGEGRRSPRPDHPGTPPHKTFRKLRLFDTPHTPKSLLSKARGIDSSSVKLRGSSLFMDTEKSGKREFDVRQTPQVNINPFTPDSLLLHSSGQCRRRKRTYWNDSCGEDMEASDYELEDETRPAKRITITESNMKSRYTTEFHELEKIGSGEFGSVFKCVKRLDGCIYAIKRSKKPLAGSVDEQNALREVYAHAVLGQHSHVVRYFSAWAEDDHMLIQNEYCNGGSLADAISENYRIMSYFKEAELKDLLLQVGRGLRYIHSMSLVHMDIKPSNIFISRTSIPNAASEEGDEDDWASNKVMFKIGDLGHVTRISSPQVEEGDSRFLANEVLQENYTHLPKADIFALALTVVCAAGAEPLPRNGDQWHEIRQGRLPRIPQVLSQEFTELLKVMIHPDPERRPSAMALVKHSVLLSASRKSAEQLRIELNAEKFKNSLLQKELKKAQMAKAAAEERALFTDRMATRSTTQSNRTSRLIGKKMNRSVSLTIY
T1 sequence (Q96SW2 whole entry): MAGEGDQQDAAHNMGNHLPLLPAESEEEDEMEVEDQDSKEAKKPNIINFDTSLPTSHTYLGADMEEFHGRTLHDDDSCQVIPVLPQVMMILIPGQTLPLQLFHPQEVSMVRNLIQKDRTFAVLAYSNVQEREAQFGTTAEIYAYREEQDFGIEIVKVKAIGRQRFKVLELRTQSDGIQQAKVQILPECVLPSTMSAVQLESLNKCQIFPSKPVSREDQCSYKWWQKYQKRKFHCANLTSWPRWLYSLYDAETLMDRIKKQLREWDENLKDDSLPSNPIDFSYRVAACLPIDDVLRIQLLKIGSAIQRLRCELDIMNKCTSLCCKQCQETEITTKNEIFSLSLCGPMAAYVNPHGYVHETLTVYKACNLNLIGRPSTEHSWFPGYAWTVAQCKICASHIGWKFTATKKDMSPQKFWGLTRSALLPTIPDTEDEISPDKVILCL
T1 sequence (Q16531 whole entry partner): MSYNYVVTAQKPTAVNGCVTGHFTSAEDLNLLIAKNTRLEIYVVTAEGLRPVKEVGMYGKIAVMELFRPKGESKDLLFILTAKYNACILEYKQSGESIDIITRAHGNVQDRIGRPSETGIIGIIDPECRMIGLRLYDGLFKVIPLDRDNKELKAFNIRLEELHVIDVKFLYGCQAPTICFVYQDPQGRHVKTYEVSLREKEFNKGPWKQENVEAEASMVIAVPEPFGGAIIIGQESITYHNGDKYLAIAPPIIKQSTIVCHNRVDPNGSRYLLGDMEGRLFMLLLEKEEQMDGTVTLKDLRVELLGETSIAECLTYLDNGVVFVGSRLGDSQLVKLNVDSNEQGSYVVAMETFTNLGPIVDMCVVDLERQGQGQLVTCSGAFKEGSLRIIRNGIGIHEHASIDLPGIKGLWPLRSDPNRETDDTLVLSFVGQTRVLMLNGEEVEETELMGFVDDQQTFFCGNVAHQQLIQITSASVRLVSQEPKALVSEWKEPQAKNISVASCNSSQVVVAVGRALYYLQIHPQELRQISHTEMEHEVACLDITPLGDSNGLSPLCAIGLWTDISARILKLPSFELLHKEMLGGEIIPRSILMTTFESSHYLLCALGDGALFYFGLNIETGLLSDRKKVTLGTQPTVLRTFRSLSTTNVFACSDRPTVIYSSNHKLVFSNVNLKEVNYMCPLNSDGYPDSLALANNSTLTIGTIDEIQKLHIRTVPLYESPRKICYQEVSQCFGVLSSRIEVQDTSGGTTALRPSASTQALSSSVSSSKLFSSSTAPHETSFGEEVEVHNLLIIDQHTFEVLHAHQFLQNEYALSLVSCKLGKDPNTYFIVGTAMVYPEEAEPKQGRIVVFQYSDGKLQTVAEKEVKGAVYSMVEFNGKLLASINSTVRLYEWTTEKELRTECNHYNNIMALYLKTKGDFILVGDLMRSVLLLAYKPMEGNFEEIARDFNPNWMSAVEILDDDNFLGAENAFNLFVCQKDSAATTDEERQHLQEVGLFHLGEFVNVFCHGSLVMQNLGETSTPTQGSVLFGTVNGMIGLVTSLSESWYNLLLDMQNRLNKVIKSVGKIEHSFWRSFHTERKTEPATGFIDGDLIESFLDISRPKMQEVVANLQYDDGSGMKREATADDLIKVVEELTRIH

IKZF1 = target: T2, IKZF1 (Homo sapiens, UniProt Q13422+Q96SW2); test: Western-blot assay of substrate protein degradation in hPBMCs, IKZF1
T2 construct: endogenous in cells; host or cells: hPBMCs (Milecell Biotechnologies)

GSPT1 = target: T3, GSPT1 (Homo sapiens, UniProt P15170+Q96SW2); test: Western-blot assay of substrate protein degradation in hPBMCs, GSPT1
T3 construct: endogenous in cells; host or cells: hPBMCs (Milecell Biotechnologies)
T3 sequence (P15170 whole entry): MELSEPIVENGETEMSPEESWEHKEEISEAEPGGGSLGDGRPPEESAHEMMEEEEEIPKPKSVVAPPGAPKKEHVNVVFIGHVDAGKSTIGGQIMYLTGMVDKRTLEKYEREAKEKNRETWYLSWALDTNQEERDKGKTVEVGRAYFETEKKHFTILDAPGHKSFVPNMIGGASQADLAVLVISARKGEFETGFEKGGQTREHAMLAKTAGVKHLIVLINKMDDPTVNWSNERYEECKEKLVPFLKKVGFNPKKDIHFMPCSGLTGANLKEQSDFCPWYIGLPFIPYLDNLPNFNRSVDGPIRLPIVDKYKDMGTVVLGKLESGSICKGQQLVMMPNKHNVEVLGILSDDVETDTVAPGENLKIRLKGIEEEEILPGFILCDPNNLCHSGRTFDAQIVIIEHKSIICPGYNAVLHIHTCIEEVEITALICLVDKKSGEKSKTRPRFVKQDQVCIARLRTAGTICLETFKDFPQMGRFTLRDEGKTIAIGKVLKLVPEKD
T3 sequence (Q96SW2 whole entry): as the sequence (Q96SW2 whole entry) above
T3 sequence (Q16531 whole entry partner): as the sequence (Q16531 whole entry partner) above

CK1α = target: T4, CK1α (Homo sapiens, UniProt P48729+Q96SW2); test: Western-blot assay of substrate protein degradation in hPBMCs, CK1α
T4 construct: endogenous in cells; host or cells: hPBMCs (Milecell Biotechnologies)
T4 sequence (P48729 whole entry): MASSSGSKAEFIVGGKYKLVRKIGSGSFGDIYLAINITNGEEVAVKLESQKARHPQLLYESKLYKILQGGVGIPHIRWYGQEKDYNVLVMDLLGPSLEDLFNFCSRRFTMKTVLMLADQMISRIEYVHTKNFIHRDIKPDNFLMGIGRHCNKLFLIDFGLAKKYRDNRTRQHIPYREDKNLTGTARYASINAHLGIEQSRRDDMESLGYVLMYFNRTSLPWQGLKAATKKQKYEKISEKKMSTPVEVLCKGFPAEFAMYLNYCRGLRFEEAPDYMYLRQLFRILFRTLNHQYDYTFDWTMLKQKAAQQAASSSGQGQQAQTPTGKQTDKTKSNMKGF
T4 sequence (Q96SW2 whole entry): as the sequence (Q96SW2 whole entry) above
T4 sequence (Q16531 whole entry partner): as the sequence (Q16531 whole entry partner) above

IKZF3 = target: T5, IKZF3 (Homo sapiens, UniProt Q96SW2+Q9UKT9); test: Western-blot assay of substrate protein degradation in hPBMCs, IKZF3
T5 construct: endogenous in cells; host or cells: hPBMCs (Milecell Biotechnologies)
T5 sequence (Q9UKT9 whole entry): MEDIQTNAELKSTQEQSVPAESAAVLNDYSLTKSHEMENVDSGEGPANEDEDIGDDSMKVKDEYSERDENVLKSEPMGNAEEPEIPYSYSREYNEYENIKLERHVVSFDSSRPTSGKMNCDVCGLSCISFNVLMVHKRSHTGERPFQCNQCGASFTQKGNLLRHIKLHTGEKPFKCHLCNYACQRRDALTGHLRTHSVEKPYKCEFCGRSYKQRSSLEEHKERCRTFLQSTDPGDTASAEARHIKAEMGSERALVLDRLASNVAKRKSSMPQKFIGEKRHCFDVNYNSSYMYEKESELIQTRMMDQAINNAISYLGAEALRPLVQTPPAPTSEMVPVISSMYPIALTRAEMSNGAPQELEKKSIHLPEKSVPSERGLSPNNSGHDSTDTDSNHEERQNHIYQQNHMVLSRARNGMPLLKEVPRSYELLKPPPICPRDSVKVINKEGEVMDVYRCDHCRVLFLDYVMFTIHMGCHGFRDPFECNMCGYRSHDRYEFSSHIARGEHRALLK
T5 sequence (Q96SW2 whole entry): as the sequence (Q96SW2 whole entry) above
T5 sequence (Q16531 whole entry partner): as the sequence (Q16531 whole entry partner) above

IKZF2 = target: T6, IKZF2 (Homo sapiens, UniProt Q96SW2+Q9UKS7); test: Western-blot assay of substrate protein degradation in hPBMCs, IKZF2
T6 construct: endogenous in cells; host or cells: hPBMCs (Milecell Biotechnologies)
T6 sequence (Q9UKS7 whole entry): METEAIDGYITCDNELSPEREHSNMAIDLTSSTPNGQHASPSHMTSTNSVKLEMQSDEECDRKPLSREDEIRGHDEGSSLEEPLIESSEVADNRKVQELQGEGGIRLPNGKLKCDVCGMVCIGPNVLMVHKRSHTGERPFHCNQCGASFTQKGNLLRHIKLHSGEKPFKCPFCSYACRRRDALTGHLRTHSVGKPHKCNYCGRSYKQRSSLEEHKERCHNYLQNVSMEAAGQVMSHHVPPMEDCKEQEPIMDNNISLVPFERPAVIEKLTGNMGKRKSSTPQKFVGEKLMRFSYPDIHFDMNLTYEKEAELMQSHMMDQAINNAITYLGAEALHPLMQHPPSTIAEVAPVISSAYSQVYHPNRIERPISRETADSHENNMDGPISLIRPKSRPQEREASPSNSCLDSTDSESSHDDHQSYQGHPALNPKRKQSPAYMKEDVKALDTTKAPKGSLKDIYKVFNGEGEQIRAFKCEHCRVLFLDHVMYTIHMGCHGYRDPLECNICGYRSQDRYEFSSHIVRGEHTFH
T6 sequence (Q96SW2 whole entry): as the sequence (Q96SW2 whole entry) above
T6 sequence (Q16531 whole entry partner): as the sequence (Q16531 whole entry partner) above

| SMILES | Weel substrate protein remaining % (WEE1) | IKZF 1 substrate protein remaining % (IKZF1) | GSPT1 substrate protein remaining % (GSPT1) | CK1a substrate protein remaining % (CK1α) | IKZF3 substrate protein remaining % (IKZF3) | IKZF2 substrate protein remaining % (IKZF2) |
| --- | --- | --- | --- | --- | --- | --- |
| Cc1nc(C2CCN(Cc3ccc4c(c3)C(=O)N(C3CCC(=O)NC3=O)C4=O)CC2)c2ccsc2n1 (stereo not drawn) [GT-06647, 2-(2,6-dioxopiperidin-3-yl)-5-((4-(2-methylthieno[2,3-d]pyrimidin-4-yl)piperidin-1-yl)methyl)isoindoline-1,3-dione] | A (0% ≤ substrate protein remaining % ≤ 80%) | B (80%< substrate protein remaining %≤ 100%) | A (0% ≤ substrate protein remaining % ≤ 80%) | A (0% ≤ substrate protein remaining % ≤ 80%) | B (80%< substrate protein remaining %≤ 100%) | A (0% ≤ substrate protein remaining % ≤ 80%) |
| Cc1nc(C2CCN(Cc3ccc4c(c3)C(=O)N(C3CCC(=O)NC3=O)C4=O)CC2)c2c3c(sc2n1)CCCC3 (stereo not drawn) [GT-06648, 2-(2,6-dioxopiperidin-3-yl)-5-((4-(2-methyl-5,6,7,8-tetrahydrobenzo[4,5]thieno[2,3-d]pyrimidin-4-yl)piperidin-1-yl)methyl)isoindoline-1,3-dione] | A (0% ≤ substrate protein remaining % ≤ 80%) | B (80%< substrate protein remaining %≤ 100%) | A (0% ≤ substrate protein remaining % ≤ 80%) | A (0% ≤ substrate protein remaining % ≤ 80%) | B (80%< substrate protein remaining %≤ 100%) | A (0% ≤ substrate protein remaining % ≤ 80%) |
| Cc1csc2ncnc(C3=CCN(Cc4ccc5c(c4)C(=O)N(C4CCC(=O)NC4=O)C5=O)CC3)c12 (stereo not drawn) [GT-06654, 2-(2,6-dioxopiperidin-3-yl)-5-((4-(5-methylthieno[2,3-d]pyrimidin-4-yl)-3,6-dihydropyridin-1(2H)-yl)methyl)isoindoline-1,3-dione] | A (0% ≤ substrate protein remaining % ≤ 80%) | B (80%< substrate protein remaining %≤ 100%) | A (0% ≤ substrate protein remaining % ≤ 80%) | B (80%< substrate protein remaining %≤ 100%) | B (80%< substrate protein remaining %≤ 100%) | B (80%< substrate protein remaining %≤ 100%) |
| O=C1CCC(N2C(=O)c3ccc(CN4C5CC4CN(c4cccc(Cl)c4Cl)C5)cc3C2=O)C(=O)N1 (stereo not drawn) [GT-06688, 5-((3-(2,3-dichlorophenyl)-3,6-diazabicyclo[3.1.1]heptan-6-yl)methyl)-2-(2,6-dioxopiperidin-3-yl)isoindoline-1,3-dione] | B (80%< substrate protein remaining %≤ 100%) | B (80%< substrate protein remaining %≤ 100%) | A (0% ≤ substrate protein remaining % ≤ 80%) | B (80%< substrate protein remaining %≤ 100%) | B (80%< substrate protein remaining %≤ 100%) | B (80%< substrate protein remaining %≤ 100%) |
| O=C1CCC(N2C(=O)c3ccc(CN4C[C@H]5C[C@@H]4CN5c4cccc(Cl)c4Cl)cc3C2=O)C(=O)N1 (stereo partly drawn) [GT-06690, 5-(((1R,4R)-5-(2,3-dichlorophenyl)-2,5-diazabicyclo[2.2.1]heptan-2-yl)methyl)-2-(2,6-dioxopiperidin-3-yl)isoindoline-1,3-dione] | B (80%< substrate protein remaining %≤ 100%) | B (80%< substrate protein remaining %≤ 100%) | A (0% ≤ substrate protein remaining % ≤ 80%) | B (80%< substrate protein remaining %≤ 100%) | A (0% ≤ substrate protein remaining % ≤ 80%) | B (80%< substrate protein remaining %≤ 100%) |
| O=C1CCC(N2C(=O)c3ccc(CN4C[C@@H]5C[C@H]4CN5c4cccc(Cl)c4Cl)cc3C2=O)C(=O)N1 (stereo partly drawn) [GT-06691, 5-(((1S,4S)-5-(2,3-dichlorophenyl)-2,5-diazabicyclo[2.2.1]heptan-2-yl)methyl)-2-(2,6-dioxopiperidin-3-yl)isoindoline-1,3-dione] | A (0% ≤ substrate protein remaining % ≤ 80%) | B (80%< substrate protein remaining %≤ 100%) | A (0% ≤ substrate protein remaining % ≤ 80%) | B (80%< substrate protein remaining %≤ 100%) | B (80%< substrate protein remaining %≤ 100%) | A (0% ≤ substrate protein remaining % ≤ 80%) |
| O=C1CCC(N2C(=O)c3ccc(CN4CC5CCC4CN5c4cccc(Cl)c4Cl)cc3C2=O)C(=O)N1 (stereo not drawn) [GT-06692, 5-((5-(2,3-dichlorophenyl)-2,5-diazabicyclo[2.2.2]octan-2-yl)methyl)-2-(2,6-dioxopiperidin-3-yl)isoindoline-1,3-dione] | A (0% ≤ substrate protein remaining % ≤ 80%) | B (80%< substrate protein remaining %≤ 100%) | A (0% ≤ substrate protein remaining % ≤ 80%) | B (80%< substrate protein remaining %≤ 100%) | B (80%< substrate protein remaining %≤ 100%) | A (0% ≤ substrate protein remaining % ≤ 80%) |
| O=C1CCC(N2C(=O)c3ccc(CN4CC5CCC(C4)N5c4cccc(Cl)c4Cl)cc3C2=O)C(=O)N1 (stereo not drawn) [GT-06693, 5-((8-(2,3-dichlorophenyl)-3,8-diazabicyclo[3.2.1]octan-3-yl)methyl)-2-(2,6-dioxopiperidin-3-yl)isoindoline-1,3-dione] | A (0% ≤ substrate protein remaining % ≤ 80%) | B (80%< substrate protein remaining %≤ 100%) | A (0% ≤ substrate protein remaining % ≤ 80%) | B (80%< substrate protein remaining %≤ 100%) | B (80%< substrate protein remaining %≤ 100%) | A (0% ≤ substrate protein remaining % ≤ 80%) |
| O=C1CCC(N2C(=O)c3ccc(CN4CCCN(c5cccc(Cl)c5Cl)CC4)cc3C2=O)C(=O)N1 (stereo not drawn) [GT-06695, 5-((4-(2,3-dichlorophenyl)-1,4-diazepan-1-yl)methyl)-2-(2,6-dioxopiperidin-3-yl)isoindoline-1,3-dione] | B (80%< substrate protein remaining %≤ 100%) | B (80%< substrate protein remaining %≤ 100%) | A (0% ≤ substrate protein remaining % ≤ 80%) | B (80%< substrate protein remaining %≤ 100%) | B (80%< substrate protein remaining %≤ 100%) | A (0% ≤ substrate protein remaining % ≤ 80%) |
| O=C1CCC(N2C(=O)c3ccc(CN4CCC(n5c(=O)[nH]c6cc(F)ccc65)CC4)cc3C2=O)C(=O)N1 (stereo not drawn) [GT-06704, 2-(2,6-dioxopiperidin-3-yl)-5-((4-(5-fluoro-2-oxo-2,3-dihydro-1H-benzo[d]imidazol-1-yl)piperidin-1-yl)methyl)isoindoline-1,3-dione] | B (80%< substrate protein remaining %≤ 100%) | B (80%< substrate protein remaining %≤ 100%) | A (0% ≤ substrate protein remaining % ≤ 80%) | B (80%< substrate protein remaining %≤ 100%) | A (0% ≤ substrate protein remaining % ≤ 80%) | B (80%< substrate protein remaining %≤ 100%) |
| O=C1CCC(N2C(=O)c3ccc(CN4CCN(c5c[nH]c6ncccc56)CC4)cc3C2=O)C(=O)N1 (stereo not drawn) [GT-06707, 5-((4-(1H-pyrrolo[2,3-b]pyridin-3-yl)piperazin-1-yl)methyl)-2-(2,6-dioxopiperidin-3-yl)isoindoline-1,3-dione] | A (0% ≤ substrate protein remaining % ≤ 80%) | B (80%< substrate protein remaining %≤ 100%) | A (0% ≤ substrate protein remaining % ≤ 80%) | A (0% ≤ substrate protein remaining % ≤ 80%) | A (0% ≤ substrate protein remaining % ≤ 80%) | B (80%< substrate protein remaining %≤ 100%) |
